Laboratory results: PMC6017089, “Discovery of a Manduca sexta Allatotropin Antagonist from a Manduca sexta Allatotropin Receptor Homology Model” (Molecules : A Journal of Synthetic Chemistry and Natural …, 2018)
Where “and” joins values, the source holds several entries; their conditions need not be identical. Equal values may be shown once. Entries after “also recorded” stand apart in the source; their conditions may differ. Read-outs that look alike come from different tables or passages of the source. Non-standard residues stand in square brackets, D forms with d. Residues, ends and D or L forms follow the SMILES beside them. No end group written: not given here. *: point of attachment. Phe(4-Cl) = N[C@@H](Cc1ccc(Cl)cc1)C(=O)O; Phe(4-Me) = Cc1ccc(C[C@H](N)C(=O)O)cc1; Ala(cPr) = N[C@@H](CC1CC1)C(=O)O; Isobutyryl = CC(C)C(=O)*

What was measured:
[1] = target: T1, corpora allata (CA) of adult female M. sexta stimulated with Manse-AT (Manduca sexta, UniProt F1CZQ1); assay type: cell-based
T1 sequence (F1CZQ1 1-457): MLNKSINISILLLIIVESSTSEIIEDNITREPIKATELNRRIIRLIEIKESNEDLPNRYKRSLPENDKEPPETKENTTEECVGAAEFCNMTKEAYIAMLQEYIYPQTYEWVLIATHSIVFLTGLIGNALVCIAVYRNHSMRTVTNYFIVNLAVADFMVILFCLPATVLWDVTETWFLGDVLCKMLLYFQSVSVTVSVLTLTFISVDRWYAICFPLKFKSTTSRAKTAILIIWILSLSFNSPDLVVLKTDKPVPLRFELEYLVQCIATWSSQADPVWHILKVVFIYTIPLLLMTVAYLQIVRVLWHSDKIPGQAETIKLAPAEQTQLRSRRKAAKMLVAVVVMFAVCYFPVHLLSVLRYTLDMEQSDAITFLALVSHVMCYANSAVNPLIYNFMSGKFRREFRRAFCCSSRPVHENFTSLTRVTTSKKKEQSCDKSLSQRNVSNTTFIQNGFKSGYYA
Procedure: (§1) On the day of adult emergence (day 0), females were marked and maintained in the wooden chamber until used. The assays for JH biosynthesis were performed using CA from day 3 females. A pair of CA with corpora cardiaca attached were incubated for 3 h at 30 °C in 100 µL of medium 199 (GIBCO) with Hanks’ salts, L-glutamine, 25 mM HEPES buffer (pH 7.2) and 2% Ficoll in the dark with gentle shaking. Compounds were dissolved in medium 199 for assay as described previously and used on the same day that the peptides were prepared. After incubation, 200 µl n-hexane containing 20 ng of citronellol as an internal standard was mixed with the incubation medium and the mixture was centrifuged at 2500× g for 5 min. The organic phases (upper layer) were removed and transferred to the analyzed vials. For M. sexta, it is known that JH II and JH III are predominantly made in adult (they contribute 99% of total JH, together). The change of total JH II and JH III titer was used to estimate the effects of JH biosynthesis in this study. The quantitative assay for JH II and JH III titer was determined by GC-MS/MS as described previously. The retention time of JH II and JH III was 11.16 min and 10.36 min, respectively. The quantification transition for JH II was 107→105.4 (collsion energy: 45 eV). Its confirmation transitions were 81→79.6 (collsion energy: 40 eV), 121→119 (collsion energy: 40 eV), 121→104.9 (collsion energy: 15 eV) and 121→92.9 (collsion energy: 10 eV), respectively. For JH III, the quantification transition was […] (collsion energy: 10 eV), the confirmation transitions were 81→79.1 (collsion energy: 5 eV), 94.9→67.1 (collsion energy: 10 eV), 120.9→93 (collsion energy: 10 eV) and 120.9→105.1 (collsion energy: 15 eV), respectively. Compounds were dissolved in medium 199 for assay and used on the same day that the peptides were prepared. Each data point on the dose-response figure represents replicate incubations of 9–13 experimental CA compared to control CA (i.e., no peptide added). EC50 (stimulator concentration50 defined as the concentration of stimulator that provokes a response halfway between the baseline and maximum response) values of Manse-AT and analogs were calculated from the dose-response curves.
Antagonistic effects of Manse-AT antagonists were measured with the compound mixture solutions (varying concentrations of the antagonist added together with Manse-AT) compared with the stimulation effects of Manse-AT. Dose response curves of antagonist on the inhibition of JH stimulation of Manse-AT was obtained using different concentrations of antagonist mixed with 1 nM Manse-AT (Supplementary Materials, Figure S1). Each data point on the dose-response figure was calculated using the Formula (1). (RManse-AT − RMixture)/(RManse-AT − RControl) (1)
RManse-AT is the average JH biosynthesis rate of 1 nM Manse-AT, RMixture is the rate of mixture contained different concentration antagonist and 1 nM Manse-AT, RControl is the average rate of medium without any peptides.
(§2) Data presented as percentages were log-transformed before statistical analyses. Data were analysed using a one-way analysis of variance (ANOVA) with a Dunnett’s multiple comparison test as the post hoc determination of significance using Prism Graph Pad version 5.0 (GraphPad Software, San Diego, CA, USA). Dose-response curves were also prepared using the computer program GraphPad Prism. Values are expressed as mean ± standard errors (S.E.M.) with N indicating the number of samples measured.

[2] = target: T2, corpora allata (CA) of adult female M. sexta (Manduca sexta, UniProt F1CZQ1); experiment: Stimulation of JH biosynthesis in vitro by corpora allata; assay type: cell-based; settings: for Stimulation of JH Biosynthesis EC50 (95% CI) / EC50: pair of CA with corpora cardiaca from day 3 females, 3 h at 30 °C in medium 199 pH 7.2, total JH II + JH III by GC-MS/MS, 9–13 repeats per concentration, 95% CI in brackets; for Stimulation of JH Biosynthesis: Stimulation at 1 μM: peptide 1 μM, CA from day 3 females, 3 h at 30 °C, mean ± SEM, repeat number in brackets, versus control CA without peptide; for fold less potent than Manse-AT (EC50, stimulation of JH biosynthesis): ratio of EC50 values to Manse-AT
T2 sequence (F1CZQ1 1-457): T1 sequence (F1CZQ1 1-457)
Procedure: as §1, §2

[3] = ratio of IC50 values to Manse-AT (10–13)
[4] = antagonist at varying concentrations mixed with 1 nM Manse-AT; CA from day 3 females, 3 h at 30 °C; JH II + JH III by GC-MS/MS; 9–13 repeats per concentration; 95% CI in brackets
[5] = read-out: Antagonistic Effects on JH Biosynthesis IC50 (95% CI); antagonist at varying concentrations mixed with 1 nM Manse-AT; CA from day 3 females, 3 h at 30 °C; JH II + JH III by GC-MS/MS; 9–13 repeats per concentration; 95% CI in brackets

C[C@H](N)C(=O)N[C@@H](CCCNC(=N)N)C(=O)N[C@@H](CC1CC1)C(=O)N[C@@H](Cc1ccccc1)C(N)=O [analog 8] (H-AR[Ala(cPr)]F-NH2)
fold less active than the lead Manse-AT (10–13) (IC50, antagonistic effect) [1, 3]: ~1145 fold

Ala-Arg-Gly-Ala-NH2 [analog 9, Manse-AT (10–13) analog, Phe replaced with Ala]
Antagonistic Effects on JH Biosynthesis IC50 (95% CI) [1, 4]: inactive; also recorded: No effect

C[C@H](N)C(=O)N[C@@H](CCCNC(=N)N)C(=O)NCC(=O)N[C@@H](Cc1ccccc1)C(N)=O [Manse-AT (10–13)] (H-ARGF-NH2)
Stimulation of JH Biosynthesis EC50 (95% CI) [2]: cannot be calculated; also recorded: No effect
Stimulation of JH Biosynthesis: Stimulation at 1 μM [2]: 8.1± 17.6 (13) %
IC50 [1, 5]: 0.9 nM

H-MTARGF-NH2 [Manse-AT (8–13)]
EC50 [2]: 2490 nM
Stimulation of JH Biosynthesis: Stimulation at 1 μM [2]: 133.1 ± 22.3 (9) %

Arg-Gly-Phe-NH2 [Manse-AT (11–13), truncated tripeptide analog of Manse-AT]
Stimulation of JH Biosynthesis EC50 (95% CI) [2]: cannot be calculated; also recorded: No effect
Stimulation of JH Biosynthesis: Stimulation at 1 μM [2]: 8.3 ± 16.4 (9) %
Antagonistic Effects on JH Biosynthesis IC50 (95% CI) [1, 4]: did not possess any antagonistic effect; also recorded: No effect

AMMTARGF-NH2 [Manse-AT (6–13) [Ala^1]]
Stimulation of JH biosynthesis at 10 µM ([2]; concentration of 10 µM, adult female CA in vitro): completely inactive
Stimulation of JH Biosynthesis EC50 (95% CI) [2]: No effect

H-MMTARGF-NH2 [Manse-AT (7–13)]
EC50 [2]: 180 nM and 228 nM
Stimulation of JH Biosynthesis: Stimulation at 1 μM [2]: 232.9% and 232.9 ± 33.7 (9) %
fold less potent than Manse-AT (EC50, stimulation of JH biosynthesis) [2]: 200 fold

GFKNVEMMTARGF-NH2 [Manse-AT, Manduca sexta allatotropin]
EC50 [2]: 0.9 nM
Stimulation of JH Biosynthesis: Stimulation at 1 μM [2]: 426.6 ± 86.3 (9) %

C[C@H](N)C(=O)N[C@@H](CCCNC(=N)N)C(=O)NCC(=O)N[C@@H](Cc1ccc(Cl)cc1)C(N)=O [analog 12] (H-ARG[Phe(4-Cl)]-NH2)
IC50 [1, 5]: 9.4 nM

Ala-Leu-Gly-Phe-NH2 [analog 6, Manse-AT (10–13) analog, Arg replaced with Leu]
Antagonistic Effects on JH Biosynthesis IC50 (95% CI) [1, 4]: no antagonistic effect

N=C(N)NCCC[C@H](NC(=O)CN)C(=O)NCC(=O)N[C@@H](Cc1ccccc1)C(N)=O [analog 1] (H-GRGF-NH2)
IC50 [1, 5]: 1.2 nM

CC(C)C[C@H](N)C(=O)N[C@@H](CCCNC(=N)N)C(=O)NCC(=O)N[C@@H](Cc1ccccc1)C(N)=O [analog 2] (H-LRGF-NH2)
IC50 [1, 5]: 35.4 nM

C[C@H](N)C(=O)N[C@@H](CCCNC(=N)N)C(=O)N[C@@H](C)C(=O)N[C@@H](Cc1ccccc1)C(N)=O [analog 7] (H-ARAF-NH2)
IC50 [1, 5]: 17.5 nM

TARGFa [Manse-AT (9–13), truncated analog of Manse-AT]
Stimulation of JH Biosynthesis EC50 (95% CI) [2]: cannot be calculated; also recorded: No effect
Stimulation of JH Biosynthesis: Stimulation at 1 μM [2]: 10.6 ± 21.0 (11) %

Ala-Ala-Gly-Phe-NH2 [analog 5, Manse-AT (10–13) analog, Arg replaced with Ala]
Antagonistic Effects on JH Biosynthesis IC50 (95% CI) [1, 4]: no antagonistic effect

C[C@H](N)C(=O)N[C@@H](CCCNC(=N)N)C(=O)NCC(=O)N[C@@H](Cc1ccc(O)cc1)C(N)=O [analog 10] (H-ARGY-NH2)
IC50 [1, 5]: 1 nM

H-EMMTARGF-NH2 [Manse-AT (6–13)]
EC50 [2]: 18.4 nM
Stimulation of JH Biosynthesis: Stimulation at 1 μM [2]: 600% and 600.5 ± 98.5 (9) %
fold less potent than Manse-AT (EC50, stimulation of JH biosynthesis) [2]: about 20 fold

Cc1ccc(C[C@H](NC(=O)CNC(=O)[C@H](CCCNC(=N)N)NC(=O)[C@H](C)N)C(N)=O)cc1 [analog 11] (H-ARG[Phe(4-Me)]-NH2)
IC50 [1, 5]: 8.4 nM

CC(C)C(=O)N[C@@H](CCCNC(=N)N)C(=O)NCC(=O)N[C@@H](Cc1ccccc1)C(N)=O [analog 3] (Isobutyryl-Arg-Gly-Phe-NH2)
IC50 ([1]; antagonist at varying concentrations mixed with 1 nM Manse-AT; CA from day 3 females, 3 h at 30 °C; JH II + JH III by GC-MS/MS; 9–13 repeats per concentration; 95% CI in brackets; read-out: Antagonistic Effects on JH Biosynthesis IC50 (95% CI)): 26.1 nM
fold less active than the lead Manse-AT (10–13) (IC50, antagonistic effect) [1, 3]: ~30 fold
